The supplement of paper PMC8882468

Tests used:
Assay in all cases: CTG-3D luminescence at 96 h relative to day-0 seeding control (ratio to day 0); higher = more growth / less cytotoxicity; PDxO 3D drug screen, 96 h, CTG-3D normalised to day-0 seeding control.
HCI-005.E2 = system: HCI-005.E2 (organoid from a breast cancer xenograft with a HER2-positive history)
HCI-012 = system: HCI-012 (organoid from a breast cancer xenograft)
HCI-015 = system: HCI-015 (organoid from a triple-negative breast cancer xenograft)
HCI-016 = system: HCI-016 (organoid from a triple-negative breast cancer xenograft)
HCI-017.E2 = system: HCI-017.E2 (organoid from an ER-positive breast cancer xenograft)
MDA-MB-231 = system: MDA-MB-231

CCc1c2c(nc3ccc(O)cc13)-c1cc3c(c(=O)n1C2)COC(=O)[C@]3(O)CC [SN-38]
CTG-3D luminescence at 96 h
Details	12.5 pM	0.00025 µM	0.005 µM	0.1 µM	1 µM	10 µM	100 µM	625 fM
HCI-005.E2	1.65	1.65	1.41	1.38	1.17	0.21	0.199	1.65
HCI-017.E2	1.58	1.73	1.5	1.44	1.16	0.47	0.407	1.77
MDA-MB-231	4.45	4.3	3.73	2.38	1.55	0.665	0.568	4.4

CTG-3D luminescence at 96 h
Details	12.5 pM	0.00025 µM	0.005 µM	0.1 µM	1 µM	10 µM	100 µM	625 fM
HCI-012, days in culture: 143	1.85	2.16	0.415	0.0623	0.0329	0.0255	0.0169	1.9
HCI-012, days in culture: 162	2.38	1.99	0.295	0.0642	0.0329	0.0269	0.0164	2.73
HCI-012, days in culture: 201	2.31	1.99	0.824	0.0348	0.0248	0.0127	0.014	1.61
HCI-015, days in culture: 172	2.31	1.87	1.68	0.173	0.101	0.0365	0.0336	2.79
HCI-015, days in culture: 191	1.52	1.32	0.538	0.0896	0.0635	0.0399	0.0305	1.5
HCI-015, days in culture: 218	2.35	1.74	1.05	0.109	0.0491	0.0388	0.0388	1.97
HCI-016, days in culture: 153	2.8	1.73	1.68	0.253	0.0495	0.0432	0.0259	2.02
HCI-016, days in culture: 172	2.16	2.11	1.21	0.157	0.0512	0.021	0.019	1.22
HCI-016, days in culture: 190	1.83	1.12	1.17	0.151	0.0473	0.0272	0.0195	1.25
HCI-016, days in culture: 199	1.87	1.62	1.36	0.126	0.0472	0.0229	0.0167	1.92
HCI-017.E2, days in culture: 85	2.43	2.66	1.7	2.32	1.23	0.584	0.428	2.19

CCN1CCN(Cc2ccc(Nc3ncc(F)c(-c4cc(F)c5nc(C)n(C(C)C)c5c4)n3)nc2)CC1 [abemaciclib]
CTG-3D luminescence at 96 h
Details	12.5 pM	0.00025 µM	0.005 µM	0.1 µM	1 µM	10 µM	100 µM	625 fM
HCI-005.E2	1.99	2.57	2.09	1.96	1.61	1.43	0.00876	2.12
HCI-017.E2	1.858	1.97	2.083	2.11	2.01	1.5	0.00884	2.33
MDA-MB-231	4.61	4.47	4.69	4.48	4.55	3.73	0.0487	4.67

CTG-3D luminescence at 96 h
Details	12.5 pM	0.00025 µM	0.005 µM	0.1 µM	1 µM	10 µM	100 µM	625 fM
HCI-012, days in culture: 143	2.22	2.41	2.02	2.72	1.59	0.427	0.0151	1.94
HCI-012, days in culture: 162	2.88	2.54	2.02	3.34	1.83	1.5	0.0215	3.16
HCI-012, days in culture: 201	2.81	2.22	1.75	1.73	2.31	1.47	0.0218	1.65
HCI-015, days in culture: 172	2.01	1.6	1.87	1.21	1.52	1.06	0.0103	1.19
HCI-015, days in culture: 191	1.17	1.4	1.23	1.15	1.45	1.09	0.0126	1.07
HCI-015, days in culture: 218	2.17	1.65	1.7	1.63	1.48	1.23	0.0151	1.79
HCI-016, days in culture: 153	2.82	2.09	2.87	1.71	1.14	0.355	0.0128	2.64
HCI-016, days in culture: 172	2.12	1.72	1.43	1.67	1.25	0.322	0.0115	1.34
HCI-016, days in culture: 190	1.98	1.4	1.32	1.35	1.26	0.196	0.00813	1.43
HCI-016, days in culture: 199	1.89	1.75	2.03	1.74	1.21	0.0238	0.00916	1.85
HCI-017.E2, days in culture: 85	2.84	2.45	2.5	2.52	2.03	1.81	0.0118	3.16

C=CCn1c(=O)c2cnc(Nc3ccc(N4CCN(C)CC4)cc3)nc2n1-c1cccc(C(C)(C)O)n1 [adavosertib]
CTG-3D luminescence at 96 h
Details	12.5 pM	0.00025 µM	0.005 µM	0.1 µM	1 µM	10 µM	100 µM	625 fM
HCI-005.E2	1.7	1.72	2.03	2.09	1.11	0.745	0.376	1.73
HCI-017.E2	1.84	2.24	2.2	2.13	1.78	1.28	1.51	2.15
MDA-MB-231	4.36	4.34	4.48	4.31	3.06	1.05	1.27	4.41

CTG-3D luminescence at 96 h
Details	12.5 pM	0.00025 µM	0.005 µM	0.1 µM	1 µM	10 µM	100 µM	625 fM
HCI-012, days in culture: 143	1.94	1.86	2.1	2.56	2.11	0.226	0.0167	2.06
HCI-012, days in culture: 162	2.21	2.27	2.02	3.54	2.56	0.304	0.0282	3.03
HCI-012, days in culture: 201	2.67	2.07	1.6	1.66	2.25	0.091	0.0326	1.71
HCI-015, days in culture: 172	2.15	2.15	2.3	1.04	1.39	0.498	0.139	2.33
HCI-015, days in culture: 191	2.26	1.49	1.67	0.981	0.612	0.246	0.0546	1.6
HCI-015, days in culture: 218	1.97	1.76	1.56	1.43	0.699	0.252	0.0554	1.82
HCI-016, days in culture: 153	3.14	2.15	2.59	2.27	0.264	0.0723	0.0508	3.11
HCI-016, days in culture: 172	2.14	1.63	1.55	1.14	0.176	0.0497	0.0492	1.62
HCI-016, days in culture: 190	1.64	1.28	1.36	0.602	0.0834	0.0505	0.0792	1.02
HCI-016, days in culture: 199	1.57	1.35	1.53	1.52	0.172	0.0306	0.0372	1.43
HCI-017.E2, days in culture: 85	3.02	3.07	2.89	2.57	2.45	1.09	1.58	2.77

CC[C@H](NC(=O)[C@H](C)NC)C(=O)N1C[C@@H](O)C[C@H]1Cc1c(-c2[nH]c3cc(F)ccc3c2C[C@@H]2C[C@H](O)CN2C(=O)[C@H](CC)NC(=O)[C@H](C)NC)[nH]c2cc(F)ccc12 [birinapant]
CTG-3D luminescence at 96 h
Details	12.5 pM	0.00025 µM	0.005 µM	0.1 µM	1 µM	10 µM	100 µM	625 fM
HCI-005.E2	1.74	1.66	1.74	1.77	1.79	1.51	1.29	1.76
HCI-017.E2	1.76	2.26	2.2	2.01	2.21	2.12	1.51	2.35
MDA-MB-231	4.36	4.2	4.35	1.96	2	2.03	2.41	4.39

CTG-3D luminescence at 96 h
Details	12.5 pM	0.00025 µM	0.005 µM	0.1 µM	1 µM	10 µM	100 µM	625 fM
HCI-012, days in culture: 143	1.9	1.6	0.979	1.05	0.841	1.03	0.0063	1.91
HCI-012, days in culture: 162	2.25	2.01	0.325	0.156	0.152	0.249	0.00568	2.83
HCI-012, days in culture: 201	2.65	2.24	1.46	0.262	0.102	0.277	0.0538	1.77
HCI-015, days in culture: 172	2.01	1.64	0.598	0.172	0.485	0.234	0.0277	1.3
HCI-015, days in culture: 191	0.803	0.19	0.16	0.126	0.32	0.224	0.0253	0.41
HCI-015, days in culture: 218	1.68	0.775	0.248	0.111	0.125	0.185	0.0267	1.8
HCI-016, days in culture: 153	2.99	2.23	2.64	2.39	2.94	2.86	0.41	2.37
HCI-016, days in culture: 172	2.25	1.67	1.82	1.23	1.56	1.24	0.122	1.58
HCI-016, days in culture: 190	1.66	1.27	1.52	1.09	1.38	1.36	0.309	0.99
HCI-016, days in culture: 199	1.54	1.36	1.44	1.52	1.54	1.23	0.204	1.7
HCI-017.E2, days in culture: 85	3.2	2.88	2.45	2.38	2.5	1.82	1.64	2.6
